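The compound was tested at five concentrations on cells cultured in 96-well plates, with a 48-hour exposure period. GI50: concentration for 50% inhibition of growth.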 Calls of active or inactive are those of the source. Rule as the data show it: active = GI50 up to about 1.1 µM and inactive = higher. Where a SMILES comes first, the peptide text is derived from it. [ ]: non-standard residue; d: D form. Phe(4-NO2) = N[CH](Cc1ccc([N+](=O)[O-])cc1)C(=O)O
How the values were obtained:
Test in all cases: NCI anticancer screen, dose series, 48 h
[1] = system: A498
[2] = system: A549
[3] = system: ACHN
[4] = system: DU-145
[5] = system: EKVX
[6] = system: HCT-116
[7] = system: HCT-15
[8] = system: HOP-62
[9] = system: KM12
[10] = system: M14
[11] = system: MCF7
[12] = system: MDA-MB-435
[13] = system: Malme-3M
[14] = system: NCI-H23
[15] = system: NCI-H522
[16] = system: OVCAR-4
[17] = system: OVCAR-5
[18] = system: RPMI-8226
[19] = system: SF-268
[20] = system: SF-295
[21] = system: SF-539
[22] = system: SK-MEL-28
[23] = system: SN12C
[24] = system: SNB-75
[25] = system: SW-620
[26] = system: TK-10
[27] = system: UACC-257
[28] = system: UACC-62
[29] = system: 786-0
[30] = system: CAKI-1
[31] = system: CCRF-CEM
[32] = system: COLO 205
[33] = system: HCC 2998
[34] = system: HL-60
[35] = system: HOP-92
[36] = system: HT-29
[37] = system: Hs-578T
[38] = system: IGROV-1
[39] = system: K562
[40] = system: LOX IMVI
[41] = system: MDA-MB-231
[42] = system: MOLT-4
[43] = system: NCI-H226
[44] = system: NCI-H460
[45] = system: NCI/ADR-RES
[46] = system: OVCAR-3
[47] = system: OVCAR-8
[48] = system: PC-3
[49] = system: RXF 393
[50] = system: SK-MEL-2
[51] = system: SK-MEL-5
[52] = system: SK-OV-3
[53] = system: SNB-19
[54] = system: SR
[55] = system: T47D
[56] = system: U-251
[57] = system: UO-31
[58] = system: MDA-N

## COC(C)(C)C1(O)CC[C@@H](C)CC1=O (some centres not stated)
[1]
  GI50: > 100 µM (inactive)
[2]
  GI50: > 100 µM (inactive)
[3]
  GI50: > 100 µM (inactive)
[4]
  GI50: > 100 µM (inactive)
[5]
  GI50: > 100 µM (inactive)
[6]
  GI50: > 100 µM (inactive)
[7]
  GI50: > 100 µM
[8]
  GI50: > 100 µM (inactive)
[9]
  GI50: > 100 µM (inactive)
[10]
  GI50: > 100 µM (inactive)
[11]
  GI50: > 100 µM (inactive)
[12]
  GI50: > 100 µM (inactive)
[13]
  GI50: > 100 µM (inactive)
[14]
  GI50: > 100 µM (inactive)
[15]
  GI50: > 100 µM (inactive)
[16]
  GI50: > 100 µM (inactive)
[17]
  GI50: > 100 µM (inactive)
[18]
  GI50: > 100 µM (inactive)
[19]
  GI50: > 100 µM (inactive)
[20]
  GI50: > 100 µM (inactive)
[21]
  GI50: > 100 µM (inactive)
[22]
  GI50: > 100 µM (inactive)
[23]
  GI50: > 100 µM (inactive)
[24]
  GI50: > 100 µM (inactive)
[25]
  GI50: > 100 µM (inactive)
[26]
  GI50: > 100 µM (inactive)
[27]
  GI50: > 100 µM (inactive)
[28]
  GI50: > 100 µM (inactive)

## O=C1NCN(c2ccccc2)C12CCN(CCCSc1ccc(F)cc1)CC2
[29]
  GI50: 24.3 µM (inactive)
[1]
  GI50: 11.4 µM (inactive)
[2]
  GI50: 33.1 µM (inactive)
[3]
  GI50: 19.7 µM (inactive)
[30]
  GI50: > 51.5 µM (inactive)
[31]
  GI50: 7 µM (inactive)
[32]
  GI50: 1.51 µM (inactive)
[4]
  GI50: 11 µM (inactive)
[5]
  GI50: 28.2 µM (inactive)
[33]
  GI50: 20.2 µM (inactive)
[6]
  GI50: 5.09 µM (inactive)
[7]
  GI50: 31.1 µM
[34]
  GI50: 21.8 µM (inactive)
[8]
  GI50: 25.5 µM (inactive)
[35]
  GI50: 9.71 µM (inactive)
[36]
  GI50: 3.85 µM (inactive)
[37]
  GI50: > 42.1 µM (inactive)
[38]
  GI50: 9.1 µM (inactive)
[39]
  GI50: 19.5 µM (inactive)
[9]
  GI50: 30.2 µM (inactive)
[40]
  GI50: 10.5 µM (inactive)
[10]
  GI50: 6.25 µM (inactive)
[11]
  GI50: 5.3 µM (inactive)
[41]
  GI50: 5.52 µM (inactive)
[12]
  GI50: 12.8 µM (inactive)
[42]
  GI50: 12.2 µM (inactive)
[13]
  GI50: 21.2 µM (inactive)
[43]
  GI50: 25.5 µM (inactive)
[14]
  GI50: 27.7 µM (inactive)
[44]
  GI50: 13 µM (inactive)
[15]
  GI50: > 83.9 µM (inactive)
[45]
  GI50: > 48 µM (inactive)
[46]
  GI50: 55.6 µM (inactive)
[16]
  GI50: 13.8 µM (inactive)
[17]
  GI50: 16.9 µM (inactive)
[47]
  GI50: > 100 µM (inactive)
[48]
  GI50: 47.2 µM (inactive)
[18]
  GI50: 18.6 µM (inactive)
[49]
  GI50: > 42 µM (inactive)
[19]
  GI50: 28.8 µM (inactive)
[20]
  GI50: 39 µM (inactive)
[21]
  GI50: 17.3 µM (inactive)
[22]
  GI50: 55.2 µM (inactive)
[50]
  GI50: 15.1 µM (inactive)
[51]
  GI50: 6.44 µM (inactive)
[52]
  GI50: > 100 µM (inactive)
[23]
  GI50: 21.4 µM (inactive)
[53]
  GI50: 97.3 µM (inactive)
[24]
  GI50: 3.72 µM (inactive)
[54]
  GI50: 15.9 µM (inactive)
[25]
  GI50: > 49.1 µM (inactive)
[55]
  GI50: 28.6 µM (inactive)
[26]
  GI50: 24.2 µM (inactive)
[56]
  GI50: > 88.5 µM (inactive)
[27]
  GI50: 2.92 µM (inactive)
[28]
  GI50: 27.4 µM (inactive)
[57]
  GI50: 48.5 µM (inactive)

## COC(=O)CCC(NC(=O)C(CCC(=O)OC)NC(=O)C(CCC(=O)OC)NC(=O)C(CCC(=O)OC)NC(=O)C(CCC(=O)OC)NC(=O)C(Cc1ccc([N+](=O)[O-])cc1)NC(=O)C(CCC(=O)OC)NC(=O)C(CCC(=O)OC)NC(=O)C(CCC(=O)OC)NC(=O)C(CCC(=O)OC)NC(=O)C(CCC(=O)OC)NC(C)=O)C(N)=O (configuration not stated) (Ac-E(OMe)E(OMe)E(OMe)E(OMe)E(OMe)[Phe(4-NO2)]E(OMe)E(OMe)E(OMe)E(OMe)E(OMe)-NH2; configuration not given here)
[29]
  GI50: > 100 µM (inactive)
[2]
  GI50: > 100 µM (inactive)
[3]
  GI50: > 100 µM (inactive)
[30]
  GI50: > 100 µM (inactive)
[31]
  GI50: > 100 µM (inactive)
[32]
  GI50: > 100 µM (inactive)
[4]
  GI50: > 100 µM (inactive)
[5]
  GI50: > 100 µM (inactive)
[6]
  GI50: > 100 µM (inactive)
[7]
  GI50: > 10 µM
[36]
  GI50: > 100 µM (inactive)
[37]
  GI50: 20 µM (inactive)
[38]
  GI50: > 100 µM (inactive)
[9]
  GI50: > 100 µM (inactive)
[40]
  GI50: > 100 µM (inactive)
[10]
  GI50: 37.9 µM (inactive)
[11]
  GI50: > 100 µM (inactive)
[41]
  GI50: 48.1 µM (inactive)
[12]
  GI50: > 100 µM (inactive)
[58]
  GI50: > 100 µM (inactive)
[42]
  GI50: > 100 µM (inactive)
[13]
  GI50: > 100 µM (inactive)
[14]
  GI50: > 100 µM (inactive)
[44]
  GI50: > 100 µM (inactive)
[15]
  GI50: > 100 µM (inactive)
[45]
  GI50: > 100 µM (inactive)
[16]
  GI50: > 100 µM (inactive)
[17]
  GI50: > 100 µM (inactive)
[47]
  GI50: > 100 µM (inactive)
[18]
  GI50: > 100 µM (inactive)
[49]
  GI50: > 100 µM (inactive)
[19]
  GI50: > 100 µM (inactive)
[20]
  GI50: 31.4 µM (inactive)
[22]
  GI50: > 100 µM (inactive)
[50]
  GI50: > 100 µM (inactive)
[51]
  GI50: 26.1 µM (inactive)
[52]
  GI50: 99.3 µM (inactive)
[23]
  GI50: > 100 µM (inactive)
[53]
  GI50: > 100 µM (inactive)
[24]
  GI50: > 100 µM (inactive)
[54]
  GI50: > 100 µM (inactive)
[25]
  GI50: > 100 µM (inactive)
[26]
  GI50: > 100 µM (inactive)
[56]
  GI50: > 100 µM (inactive)
[27]
  GI50: > 100 µM (inactive)
[28]
  GI50: > 10 µM (inactive)
[57]
  GI50: > 100 µM (inactive)

Source: ChEMBL document CHEMBL1201862, “PubChem BioAssay data set” (2004)
